Assay results published in US20220305021A1, “METHODS OF TREATING AND/OR PREVENTING PSORIASIS” (Athenex, Inc., priority 2019, published 2022).

Tests used:
subjects with psoriasis = assay: Phase I clinical trial of topical KX-01 ointment in subjects with psoriasis; type: in vivo, human
Experimental: Six subjects with psoriasis with Total Area Score (TAS) of 4-8 (based on the sum of the scores of erythema, elevation and scaling) were assessed. […] In stage I, each subject will be assigned randomly to KX-01 (0.01%, n=6) or placebo (n=2) before the first administration of investigational medicinal product (KX-01 or placebo). 22 subjects are recruited in three stages. Each subject in stage I will receive treatment for two weeks, followed by one-week wash-out, another two-week treatment, and then two-week follow-up. After a satisfactory collaborative review for the safety data of the lower strength (0.01%) at the end of follow up for each subject, if there is no major safety concern (major safety concern is defined as ≥2 subjects in the KX-01 group having ≥CTCAE Grade 3 or severe adverse drug reaction), as well as an unanimous consent by the sponsor and the principle investigator(s), stage II study begins where each subject is assigned randomly to KX-01 (0.1%, n=6) or placebo (n=2) before the first administration. Each subject in the stage II will receive treatment for four weeks, followed by a two-week follow-up. After a satisfactory collaborative review for the safety data of the lower strength (0.1%) at the end of follow up for each subject, if there is no major safety concern, stage III study follows. Stage III comprises a single arm study (n=6), where each subject will receive 1% KX-01 once daily for consecutive five days and then receive post-treatment follow-up on day 6, 15, and 29. • Stage I: 6 subjects (KX-01 0.01% [0.1 mg/g])+2 subjects (placebo) • Stage II: 6 subjects (KX-01 0.1% [1.0 mg/g])+2 subjects (placebo) • Stage III: 6 subjects (KX-01 1% [10 mg/g]) Subjects visit the study center for ambulatory visits: • Stage I (See Tables 1A and 1B) • Visit 1: Screening, within 28 days before first application of IMP • Visit 2: Week 1 (Day 1/Baseline) • Visit 3: Week 2 (Day 8±3/After consecutive 1-week treatment) • Visit 4: Week 3 (Day 15±3/After consecutive 2-week treatment) • Visit 5: Week 4 (Day 22±3/After 1 week wash-out) • Visit 6: Week 6 (Day 36±3/After another consecutive 2-week treatment) • Visit 7: Week 8 (Day 50±3/After 2-week post-treatment follow-up) • Stage II (See Tables 2A and 2B) • Visit 1: Screening, within 28 days before first application of IMP • Visit 2: Week 1 (Day 1/Baseline) • Telephone interview (Day 8±3, after consecutive 1-week treatment) • Visit 3: Week 3 (Day 15±3/After consecutive 2-week treatment) • Visit 4: Week 5 (Day 29±3/After consecutive 4-week treatment) • Visit 5: Week 7 (Day 43±3/After 2-week post-treatment follow-up) • […] (See Table 3) • Visit 1: Screening, within 28 days before first application of IMP • Visit 2: Day 1, baseline • Visit 3: Day 6±1, after consecutive 5-day treatment • Visit 4: Day 15±2, after 10-day post-treatment follow up • Visit 5: Day 29±2, after 24-day post-treatment follow-up The IMP (treatment or placebo) is applied to a single lesion. […] For stage I, each subject receives IMP for 14 consecutive days, followed by 1-week wash-out period and then receives IMP for another 14 consecutive days. For stage II, each subject receives IMP for 28 consecutive days. For stage III, each subject receives IMP once daily for consecutive five days. For stage I and II, blood samples for the determination of KX-01 concentrations are collected prior to the morning dose at the designated ambulatory visits to the study center (Stage I: Day 1, 8±3, 15±3, 22±3 Stage II: Day 1, 15±3, 29±3) (See Table 4). For stage III, blood samples for drug concentrations are collected prior to the dose on day 1, and day 6±1, day 15±2. The duration of this study is approximately three months for each subjects (See Table 4). On day 1, a single treatment lesion consisting of active psoriasis skin lesion of at least 16 cm^2 in size with upper limit of 625 cm^2 for stage I and II, and at least 16 cm^2 and no more than 100 cm^2 (≥16 cm^2 &≤100 cm^2) in size for stage III is selected for each subject. […]

rats = assay: Twice daily dermal administration of KX-01 ointment to rats (six days); type: in vivo, rat
Experimental: Subjects in clinical studies of KX-01 ointment where administered KX-01 ointment up to 250 mg (5 mg/cm^2 [administration amount]×25 cm^2 [administration area]×2 [safety factor for larger application area]). This amount of the 0.01% or 0.1% concentration of ointment contains 0.025 mg or 0.25 mg of KX-01. Therefore, the amount of KX-01 delivered to the skin of the average 60 kg subject is 0.025 or 0.25 mg/60 kg/dose, or 0.00042 or 0.0042 mg/kg/dose. […] The safety margin in administered dermal KX-01 dose indicates little risk of adverse systemic effects in humans under the conditions of the clinical studies of KX-01 ointment based on nonclinical studies in animals.

rabbits = assay: Twice daily dermal administration of KX-01 ointment to rabbits (seven days, single dose on day eight); type: in vivo, rabbit; settings: up to 2.0667 mg/kg KX-01 in ointment, seven days twice daily dosing with a single dose on day eight
mini-pigs = assay: Once daily KX-01 1% ointment on mini-pigs, occluded skin, 28 days; type: in vivo, mini-pig
Text: KX-01 1% once daily administration of KX-01 ointment was examined on the mini-pigs on 10% of body surface area with skin being occluded for consecutive 28 days.

[1] = 1% ointment daily for five days, observed in one subject
[2] = KX-01 ointment 0.01% twice daily dose regimen
[3] = 1% ointment once daily, 10% of body surface area, occluded, 28 consecutive days

Compound: O=C(Cc1ccc(-c2ccc(OCCN3CCOCC3)cc2)cn1)NCc1ccccc1 [KX-01, Tirbanibulin]
- Systemic absorption of KX-01 (subjects with psoriasis; 1% ointment daily for five days, topical): no significant absorption
- Psoriatic plaque thickness (subjects with psoriasis; 1% ointment daily for five days, another subject of six): improvement
- Skin burning sensation (adverse event severity) (subjects with psoriasis; [1]): mild (grade-1)
- Skin irritation (adverse event severity) (subjects with psoriasis; [1]): mild (grade-1)
- Skin scaling (subjects with psoriasis; 1% ointment daily for five days, one subject of six): complete resolution
- Tolerability of treatment (subjects with psoriasis; 1% ointment daily for five days, six subjects): well-tolerated
- TAS score (sum of erythema, elevation and scaling) (subjects with psoriasis; 1% ointment daily for five days, six subjects, baseline TAS 4-8): All subjects showed an improvement
- Clinical activity (subjects with psoriasis; KX-01 (Tirbanibulin) 1% ointment daily for five days, first cohort of subjects with psoriasis): Clinical activity signals were observed
- Serious adverse events (SAE) (subjects with psoriasis; [2]): No serious adverse event
- Treatment-emergent adverse events related to drug (subjects with psoriasis; [2]): Only one treatment-emergent adverse event, Grade 1 tenderness
- Tolerability (subjects with psoriasis; KX-01 ointment 0.01% twice daily dose regimen, most subjects): excellent and good
- Safety profile (subjects with psoriasis; KX-01 ointment in the treatment of psoriasis): Good safety profile
- Safety margin: clinical dermal dose times lower than rat 12.4 mg/kg/dose (rats; 0.01% ointment, 0.025 mg/60 kg/dose (0.00042 mg/kg/dose) in humans vs 12.4 mg/kg/dose in rats): approximately 29700 times
- Safety margin: clinical dermal dose times lower than rat 12.4 mg/kg/dose (rats; 0.1% ointment, 0.25 mg/60 kg/dose (0.0042 mg/kg/dose) in humans vs 12.4 mg/kg/dose in rats): ~2970 times
- Plasma concentrations of KX-01 (rats; rat, in vivo): very low
- Skin irritation (rabbits): mild to moderate
- Systemic adverse effects (rabbits): no signs of systemic adverse effects
- Body weight (mini-pigs; [3]): decreased
- Edema at the drug application site (mini-pigs; [3]): very slight to slight
- Erythema and eschar at the drug application site (mini-pigs; [3]): very slight to severe
- Hepatic, renal, and haematological profiles (mini-pigs; [3]): changes
- Other skin findings at the drug application site (mini-pigs; [3]): desquamation, fissuring, scab, ulceration
- Reversibility of findings (mini-pigs; by the last week of recovery after 28 days of 1% ointment): Most of these findings were resolved
